Results as given in PubChem BioAssay (NCI).
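Protocol summary: plate cells (96-well), add compound at 5 concentrations, incubate 48 h, interpolate endpoints linearly. At the TGI there is no net growth.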 Where a SMILES comes first, the peptide text is derived from it. The star is where a group is joined. Cbz = O=C(OCc1ccccc1)*; OBn = c1ccc(CO*)cc1

Legend:
Assay in all cases: growth of human tumour cells (NCI), 48 h
MDA-MB-231 breast = test system: MDA-MB-231 breast
BT-549 breast = test system: BT-549 breast
RPMI-8226 leukemia = test system: RPMI-8226 leukemia
NCI-H226 lung = test system: NCI-H226 lung
SF-539 CNS = test system: SF-539 CNS
UO-31 renal = test system: UO-31 renal
NCI/ADR-RES ovarian = test system: NCI/ADR-RES ovarian
SK-MEL-2 melanoma = test system: SK-MEL-2 melanoma
COLO 205 colon = test system: COLO 205 colon
HT29 colon = test system: HT29 colon

SMILES	TGI (MDA-MB-231 breast)	TGI (BT-549 breast)	TGI (RPMI-8226 leukemia)	TGI (NCI-H226 lung)	TGI (SF-539 CNS)	TGI (UO-31 renal)	TGI (NCI/ADR-RES ovarian)	TGI (SK-MEL-2 melanoma)	TGI (COLO 205 colon)	TGI (HT29 colon)
COC(=O)[C@H](Cc1ccccc1)NC(=O)NCCN(CCNC(=O)N[C@@H](Cc1ccccc1)C(=O)OC)C(=O)N[C@@H](Cc1ccccc1)C(=O)OC	46.5 µM	39.2 µM	46.3 µM	34.6 µM	47.1 µM	45.5 µM	> 100 µM	42.5 µM	40.9 µM	
O=C(O)C1C(C(=O)O)C2C(=O)C=CC1N2Cc1ccccc1 (stereo unspecified)	14.4 µM	17.4 µM	13.6 µM	35.8 µM	7.56 µM	3.72 µM	7.58 µM	24.1 µM	22.1 µM	12.6 µM
C=C1C(=O)C([Si](C)(C)C)=C2C=C(C)C3(CC3)C12C (stereo unspecified)	84.6 µM	55 µM	15.3 µM	> 100 µM		> 100 µM	44.2 µM	61.1 µM	36.4 µM	48.7 µM
O=S1(=O)c2cnccc2NC(=NCc2cccc3ccccc23)N1c1ccccc1	> 100 µM	> 100 µM	> 76.6 µM	> 100 µM	> 100 µM	> 100 µM	> 100 µM	> 30.5 µM	> 100 µM	> 100 µM
O=c1[nH]c(=O)n(C2OC(CO)C(O)C(F)C2O)cc1F (stereo unspecified)	> 100 µM	> 100 µM	> 100 µM	> 100 µM	> 100 µM	> 100 µM	> 100 µM	> 100 µM	> 100 µM	> 100 µM
CCOC(=O)c1ccc(C(=O)OCC)n1-c1cc2cc(c1)CSCc1cc(cc(-n3c(C(=O)OCC)ccc3C(=O)OCC)c1)CSC2	> 10 µM	> 10 µM	> 10 µM	> 10 µM	> 10 µM	> 10 µM	> 10 µM	> 10 µM	> 10 µM	> 10 µM
COC(=O)CNC(=O)C(C)NC(=O)C(CC(=O)OCc1ccccc1)NC(=O)OCc1ccccc1 (stereo not drawn) (Cbz-Asp(OBn)-Ala-Gly-OMe; configuration not given here)	46.9 µM	> 100 µM	> 100 µM	> 100 µM	> 100 µM	62.8 µM	> 100 µM	> 100 µM	> 100 µM	> 100 µM
C/C(=N\N)C(CN(C)C)C(c1ccccc1)c1c(O)c2ccccc2oc1=O (stereo unspecified)	> 100 µM	> 100 µM	> 100 µM	> 100 µM	> 100 µM	> 100 µM	> 100 µM	> 100 µM	> 100 µM	> 100 µM
O=c1n(/N=C/c2ccccc2)c(=O)n2n1C1C=CC2CC1	> 100 µM	> 100 µM	> 100 µM	> 100 µM	> 100 µM	> 100 µM	> 100 µM	> 100 µM	> 100 µM	> 100 µM
CCOC(=O)/C(N=Nc1ccc(-n2c(C)nc3ccccc3c2=O)cc1)=C(/C)O	> 100 µM	> 100 µM	> 100 µM	80.1 µM	> 100 µM	> 100 µM	51.8 µM	> 100 µM	> 100 µM	> 100 µM
Cc1nc2sc(CCl)nn2c(=O)c1Cl	36.4 µM	15.6 µM	24.4 µM	31.8 µM	31.3 µM	27.6 µM	50.8 µM	27.7 µM	32.2 µM	26.2 µM
Cc1ccc(NCC2CC/C(=C\c3ccc(Cl)cc3)C2=O)cc1 (stereo unspecified)	28.4 µM	36.5 µM	6.96 µM	> 100 µM	> 60.7 µM	60 µM	> 80.1 µM		34.2 µM	49.1 µM
O=C1CSC2(CC(/C=C/c3ccccc3O)=NN2c2cccc(S(=O)(=O)O)c2)N1c1nc2ccccc2s1 (stereo unspecified)	> 100 µM	77 µM	42.1 µM	> 100 µM	48.8 µM	98.9 µM	> 100 µM	> 100 µM	> 100 µM	> 100 µM
O=C1c2cc3c(cc2CC12Cc1cc4c(cc1C2=O)CCCC4)CCCC3	77.1 µM	> 100 µM	> 100 µM	> 100 µM	> 100 µM	> 100 µM	> 100 µM	> 100 µM	> 100 µM	> 100 µM
CCOC(=O)c1cc(Sc2ccc(N)c(C(=O)OCC)c2)ccc1N	> 100 µM	> 100 µM	> 100 µM	44.7 µM	> 100 µM		> 100 µM	> 100 µM	> 100 µM	> 100 µM
Oc1ccccc1/C=N/Nc1nnc2c3ccccc3c3ccccc3c2n1	> 100 µM	> 100 µM	> 100 µM	> 100 µM	> 100 µM	> 100 µM	> 100 µM	> 100 µM	> 100 µM	> 100 µM
Cn1nc(Cc2ccc(Cl)cc2)n(N)c1=O	> 100 µM	> 100 µM	> 100 µM	> 100 µM	> 100 µM	> 100 µM	> 100 µM			> 100 µM
Fc1cc(C2=C[C@H](c3ccc(Cl)cc3)NC(=S)N2)c(Cl)cc1Cl	88.7 µM	> 100 µM	56.2 µM	> 100 µM	> 100 µM	> 100 µM	> 100 µM	96.2 µM	> 100 µM	> 100 µM
NC(=O)C(Nc1c(Cl)cccc1Cl)c1cc2cc(Br)ccc2nc1Cl (stereo unspecified)	> 100 µM	> 100 µM	> 100 µM	> 100 µM	> 100 µM	> 100 µM	> 100 µM	> 100 µM	> 100 µM	> 100 µM
COc1cc(OCc2ccc3nc(-c4ccccc4)c(N)nc3c2)cc(OC)c1OC	68.9 µM	49 µM	31.3 µM	50.4 µM	44.2 µM	34.6 µM	49.6 µM	43.9 µM	30.1 µM	
Cc1c(C#N)c2nnn(C)c(=O)n2c1-c1ccccc1	> 100 µM	> 100 µM	> 100 µM	> 100 µM	> 100 µM	> 100 µM	> 100 µM	> 100 µM		
